Experimental findings from patent publication US7850984B2, “Protection of the female reproductive system from natural and artificial insults” (The General Hospital Corporation, priority 2000, dated 2010) are described below.

Data set [1] deals with ovaries (oocyte-containing follicles). The data set can be described thus: S1P protection against radiation in vivo, histomorphometric count of non-atretic oocyte-containing follicles. Details: species or system mouse. On the procedure: The serial sections from each ovary are aligned in order on glass microscope slides, stained with hematoxylin/picric methyl blue, and analyzed for the number of healthy (non-atretic) oocyte-containing primordial, primary and small preantral follicles as described by Perez et al. Nat. Genet.
Young adult (postpartum day 40) wild-type female mice are anesthetized, and dorsal incisions are made to retrieve and expose the ovaries. Five μl of vehicle (PET) are injected into the bursa of one ovary of the pair while 5 μl of a stock of either 0.5 or 2 mM S1P, prepared in PET, are injected into the bursa of the contralateral ovary. Based on an estimated bursal cavity volume of 50 μl, the final concentrations of S1P in the bursal cavity for ovarian exposure following administration of the 0.5 and 2 mM stocks are approximately 50 and 200 μM, respectively. The ovaries are returned to the peritoneal cavity, the incisions are sutured, and the mice are allowed to recover for a 2 hour pretreatment period prior to a single exposure to 0.1 Gy of abdominally-directed ionizing radiation.

The test system of data set [2] is polychromatic erythrocytes of F0, F1 and F2 mice. Put plainly: Micronuclei assay in polychromatic erythrocytes of tail blood. The data set is classed as in vivo, mouse. From the text: To evaluate the possibility of transgenerational transmission of DNA damage, the frequency of micronuclei is used as a sensitive indicator of the extent of propagated genomic damage (Trott, K. R., Jamali, M., Manti, L. & Teibe, A. Manifestations and mechanisms of radiation-induced genomic instability in V-79 Chinese hamster cells. Int. J. Radiat. Biol. 74, 787-791 (1998); Manti, L., Jamali, M., Prise, K. M., Michael B. D. & Trott, K. R. Genomic instability in Chinese hamster ovary cells after exposure to X rays or alpha particles of different mean energy transfer. Radiat. Res. 147, 22-28 (1997)). Tail blood samples from 16-18 month old non-irradiated, vehicle-treated and irradiated, or S1P-treated and irradiated F0 mice, 16-18 month old F1 mice, or 12-16 month old F2 mice, are smeared onto glass microscope slides coated with acridine orange (Shinko Corporation, New York, N.Y.), and coded prior to analysis. The frequency of micronuclei is then assessed in the 10^3 polychromatic erythrocytes by flourescence microscopy (Hayashi, M., Morita, T., Kodama, Y., Sofuni, T., & Ishidate, M., Jr. The micronucleus assay with mouse peripheral blood reticulocytes using acridine orange-coated slides. Mutat. Res. 245, 245-249 (1990)), after which the slides are decoded for data interpretation.

Entries after “also recorded” stand apart in the source; their conditions may differ.

Consider `CCCCCCCCCCCCC/C=C/[C@@H](O)[C@@H](N)COP(=O)(O)O` [S1P, sphingosine-1-phosphate], for which the “preservation of the germ cell reserve” value in data set [1] (S1P approx. 50 and 200 μM intrabursal, two hours before 0.1 Gy, ovaries two weeks later) was “significant and dose-dependent preservation of the germ cell reserve”. In data set [1] (general statement), the “side effects on the ovaries” value is “safe and without side effects on the ovaries”. In data set [1] (highest dose of S1P (200 μM in bursal cavity), two hours before 0.1 Gy, two weeks post-irradiation), the “protection of follicle populations after irradiation” value is “complete protection of the quiescent (primordial) and growing (primary, preantral) follicle populations; also recorded: retain a completely normal distribution of oocyte-containing follicles at all stages of development; also recorded: indistinguishable from non-irradiated controls; also recorded: Complete protection of the female germline from radiation-induced death”. Moreover, in data set [1] (in the absence of irradiation, intrabursal S1P), the “number of follicles at any stage of development versus vehicle-treated ovaries” value was “does not significantly differ”. Also, the “frequency of micronuclei in F0 animals versus non-irradiated controls” value in data set [2] (0.1 Gy, S1P-treated, statistically significant (P<0.01)) is “small increase in the frequency of micronuclei over non-irradiated controls”. Besides, in data set [2] (F0, 0.1 Gy), the “frequency of micronuclei, vehicle-treated versus S1P-treated irradiated mice” value is given as “no significant difference in the frequency of micronuclei”.
